# Reference: patent publication US12692254B2, “Benzimidazole inhibitors of PAD enzymes” (BRISTOL-MYERS SQUIBB COMPANY, priority 2018, dated 2026)
# Biological target: human PAD4 (hPAD4) (Homo sapiens, UniProt Q9UM07)
# Assay: RFMS human PAD4 functional assay (rapid-fire mass spectrum)
# Assay type: biochemical
# Settings: 5 nM hPAD4 enzyme, 250 μM BAEE, 50 μM Calcium; 30 min preincubation, 90 min reaction at 37° C.
# Outline: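 PAD4 (10 nM) preincubated 30 min with compound (top final 50 μM), then BAEE substrate added in pH 7.5 HEPES buffer with DTT, 50 μM calcium, TPEN; 90 min at 37° C. After TCA quench, citrulline derivatized with phenyl glyoxal (4 mM final, 30 min, 37° C) and quantified by RapidFire MS against internal standard.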
# Chain of human PAD4 (hPAD4) (Q9UM07 whole entry): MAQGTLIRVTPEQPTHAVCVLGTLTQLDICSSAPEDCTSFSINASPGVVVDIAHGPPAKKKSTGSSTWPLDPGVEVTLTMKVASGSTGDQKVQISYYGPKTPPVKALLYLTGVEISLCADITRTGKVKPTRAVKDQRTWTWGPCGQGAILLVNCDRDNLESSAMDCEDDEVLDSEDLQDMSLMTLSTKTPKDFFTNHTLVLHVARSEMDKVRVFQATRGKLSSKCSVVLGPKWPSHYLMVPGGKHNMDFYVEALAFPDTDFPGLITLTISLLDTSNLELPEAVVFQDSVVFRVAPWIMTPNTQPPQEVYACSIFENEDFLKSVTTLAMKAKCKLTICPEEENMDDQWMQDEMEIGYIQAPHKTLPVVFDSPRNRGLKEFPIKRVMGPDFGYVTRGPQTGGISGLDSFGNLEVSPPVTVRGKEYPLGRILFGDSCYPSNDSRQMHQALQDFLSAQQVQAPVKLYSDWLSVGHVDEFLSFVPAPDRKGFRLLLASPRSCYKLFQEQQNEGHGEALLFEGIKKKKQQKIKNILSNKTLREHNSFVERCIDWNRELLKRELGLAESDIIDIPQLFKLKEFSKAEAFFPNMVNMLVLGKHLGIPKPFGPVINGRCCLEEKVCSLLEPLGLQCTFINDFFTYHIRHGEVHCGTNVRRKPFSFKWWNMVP
row,SMILES,IC50
1,"COc1cc(C(=O)N2C[C@H]3CC[C@@H]2[C@@H]3N)cc2nc(-c3cc4cccnc4n3CC3CC3)n(C3CN(c4ccnc(C5CC5)n4)C3)c12 [Example 70, (1R,4R,7R)-2-{2-[1-(cyclopropylmethyl)-1H-pyrrolo[2,3-b]pyridin-2-yl]-1-[1-(2-cyclopropylpyrimidin-4-yl)azetidin-3-yl]-7-methoxy-1H-1,3-benzodiazole-5-carbonyl}-2-azabicyclo[2.2.1]heptan-7-amine]",87 nM
2,"COc1cc(C(=O)N2CC3CCC2[C@@H]3N)cc2nc(-c3cc4cccnc4n3CC3CC3)n([C@H]3C[C@H](NC(C)=O)C3)c12 (stereo partly drawn) [Example 302, N-[(1r,3r)-3-{5-[(1R,4R,7R)-7-amino-2-azabicyclo[2.2.1]heptane-2-carbonyl]-2-[1-(cyclopropylmethyl)-1H-pyrrolo[2,3-b]pyridin-2-yl]-7-methoxy-1H-1,3-benzodiazol-1-yl)cyclobutyl]acetamide]",1210 nM
3,"COc1cc(C(=O)N2C[C@H]3CC[C@@H]2[C@@H]3N)cc2nc(-c3cc4cccnc4n3CC3CC3)n(C3CN(c4ccnc(C)n4)C3)c12 [Example 77, (1R,4R,7R)-2-{2-[1-(cyclopropylmethyl)-1H-pyrrolo[2,3-b]pyridin-2-yl]-7-methoxy-1-[1-(2-methylpyrimidin-4-yl)azetidin-3-yl]-1H-1,3-benzodiazole-5-carbonyl}-2-azabicyclo[2.2.1]heptan-7-amine]",307 nM
4,"COc1cc(C(=O)N2CC3CCC2[C@@H]3N)cc2nc(-c3csc4ccc(Cl)cc34)n(CC3CN(c4cncc(C(N)=O)c4)C3)c12 (stereo partly drawn) [Example 322, 5[3-({5-[(1R,4R,7R)-7-amino-2-azabicyc1o[2.2.1]heptane-2-carbonyl]-2-(5-ch1oro-1-benzothiophen-3-yl)-7-methoxy-1H-1,3-benzodiazol-1-yl}methyl)azetidin-1-yl]pyridine-3-carboxamide]",2050 nM
5,"COc1cc(C(=O)N2C[C@H](N)C[C@@H](F)C2)cc2nc(-c3cc4ccccc4n3CC3CC3)n(CC3CN(C(=O)c4ccccc4)C3)c12 [Example 160, (3R,5R)-1-{1-[(1-benzoylazetidin-3-yl)methyl]-2-[1-(cyclopropylmethyl)-1H-indol-2-yl]-7-methoxy-1H-1,3-benzodiazole-5-carbonyl}-5-fluoropiperidin-3-amine]",25 nM
6,"COc1cc(C(=O)N2C[C@H]3CC[C@@H]2[C@@H]3N)cc2nc(-c3cc4cccnc4n3C)n(CC3CN(c4cncnc4C#N)C3)c12 [Example 60, 5-[3-({5-[(1R,4R,7R)-7-amino-2-azabicyclo[2.2.1]heptane-2-carbonyl]-7-methoxy-2-{1-methyl-1H-pyrrolo[2,3-b]pyridin-2-yl}-1H-1,3-benzodiazol-1-yl}methyl)azetidin-1-yl]pyrimidine-4-carbonitrile]",171 nM
7,"COc1cc(C(=O)N2CC3CCC2[C@@H]3N)cc2nc(-c3cc4cccnc4n3CC3CC3)n(Cc3cnn(-c4cccc(C)n4)c3)c12 (stereo partly drawn) [Example 355, (7R)-2-{2-[1-(cyclopropylmethyl)-1H-pyrrolo[2,3-b]pyridin-2-yl]-7-methoxy-1-{[1-(6-methylpyridin-2-yl)-1H-pyrazol-4-yl]methyl}-1H-1,3-benzodiazole-5-carbonyl}-2-azabicyclo[2.2.1]heptan-7-amine]",22 nM
8,"COc1cc(C(=O)N2CC3CCC2[C@@H]3N)cc2nc(-c3cc4cccnc4n3CC3CC3)n(CC3CCN(c4cnc(C#N)nc4)CC3)c12 (stereo partly drawn) [Example 221, 5-[4-({5-[(1R,4R.,7R)-7-amino-2-azabicyclo[2.2.1]heptane-2-carbonyl]-2-[1-(cyclopropylmethyl)-1H-pyrrolo[2,3-b]pyridin-2-yl]-7-methoxy-1H-1,3-benzodiazol-1-yl}methyl)piperidin-1-yl]pyrimidine-2-carbonitrile]",96 nM
9,"COc1cc(C(=O)N2C[C@H]3CC[C@@H]2[C@@H]3N)cc2nc(-c3cc4cccnc4n3CC3CC3)n(C3CN(c4ncccn4)C3)c12 [Example 80, (1R,4R,7R)-2-{2-[1-(cyclopropylmethyl)-1H-pyrrolo[2,3-b]pyridin-2-yl]-7-methoxy-1-[1-(pyrimidin-2-yl)azetidin-3-yl]-1H-1,3-benzodiazole-5-carbonyl}-2-azabicyclo[2.2.1]heptan-7-amine]",403 nM

# Continued, values first:
row,IC50,SMILES
1,48 nM,"COc1cc(C(=O)N2CC3CCC2[C@@H]3N)cc2nc(-c3cc4ccccc4n3CC3CC3)n(Cc3cnn(-c4cc(Cl)ccn4)c3)c12 (stereo partly drawn) [Example 392, (7R)-2-(1-{[1-(4-chloropyridin-2-yl)-1H-pyrazol-4-yl]methyl}-2-[1-(cyclopropylmethyl)-1H-indol-2-yl]-7-methoxy-1H-1,3-benzodiazole-5-carbonyl)-2-azabicyclo[2.2.1]heptan-7-amine]"
2,315 nM,"COc1cc(C(=O)N2C[C@H]3CC[C@@H]2[C@@H]3N)cc2nc(-c3cc4cccnc4n3CC3CC3)n(CC3CCN(C(=O)c4ccncn4)CC3)c12 [Example 233, (1R,4R,7R)-2-{2-[1-(cyclopropylmethyl)-1H-pyrrolo[2,3-b]pyridin-2-yl]-7-methoxy-1-{[1-(pyrimidine-4-carbonyl)piperidin-4-yl]methyl}-1H-1,3-benzodiazole-5-carbonyl}-2-azabicyclo[2.2.1]heptan-7-amine]"
3,37 nM,"COc1cc(C(=O)N2CC3CCC2[C@@H]3N)cc2nc(-c3cc4ccccc4n3CC3CC3)n(C[C@H]3CCN(C(=O)c4ccc(C#N)cc4)C3)c12 (stereo partly drawn) [Example 226, 4-[(3S)-3-({5-[(1R,4R,7R)-7-aminobicyclo[2.2.1]heptane-2-carbonyl]-2-[1-(cyc1opropylmethyl)-1H-indo1-2-yl]-7-methoxy-1H-1,3-benzodiazol-1-yl}methyl)pyrrolidine-1-carbonyl]benzonitrile]"
4,142 nM,"COc1cc(C(=O)N2C[C@H](N)C[C@@H](F)C2)cc2nc(-c3cc4ccccc4n3CC3CC3)n(CC3CC(F)(F)C3)c12 [Example 477, (3R,5R)-1-{2-[1-(cyclopropylmethyl)-1H-indol-2-yl]-1-[(3,3-difluorocyclobutyl)methyl]-7-methoxy-1H-1,3-benzodiazole-5-carbonyl}-5-fluoropiperidin-3-amine]"
5,11 nM,"N[C@@H]1C2CCC1N(C(=O)c1cc(F)c3c(c1)nc(-c1cc4ccccc4n1CC1CC1)n3CC1CN(C(=O)c3ccccc3)C1)C2 (stereo partly drawn) [Example 136, (1R,4R,7R)-2-{1-[(1-benozylazetidin-3-yl)methyl]-2-[1-(cyclopropylmethyl)-1H-indol-2-yl]-7-fluoro-1H-1,3-benzodiazole-5-carbonyl}-2-azabicyclo[2.2.1]heptan-7-amine]"
6,14 nM,"COc1cc(C(=O)N2CC3CCC2[C@@H]3N)cc2nc(-c3cc4cccnc4n3CC3CC3)n(CC3CN(C(=O)[C@H]4C[C@@H]4c4ccccc4)C3)c12 (stereo partly drawn) [Example 103, (1R,4R,7R)-2-{2-[1-(cyclopropylmethyl)-1H-pyrrolo[2,3-b]pyridin-2-yl]-7-methoxy-1-({1-[(1S,2S)-2-phenylcyclopropanecarbonyl]aze-tidin-3-yl}-methyl)-1H-1,3-benzodiazole-5-carbonyl}-2-azabicyclo[2.2.1]heptan-7-amine]"
7,43 nM,"COc1cc(C(=O)N2CC3CCC2[C@@H]3N)cc2nc(-c3cc4ccccc4n3CC3CC3)n(CC3CN(C(=O)c4ccc(Cl)s4)C3)c12 (stereo partly drawn) [Example 445, (7R)-2-(1-{[1-(5-chlorothiophene-2-carbonyl)azetidin-3-yl]methyl}-2-[1-(cyclopropylmethyl)-1H-indol-2-yl]-7-methoxy-1H-1,3-benzodiazole-5-carbonyl)-2-azabicyclo[2.2.1]heptan-7-amine]"
8,23 nM,"COc1cc(C(=O)N2C[C@H]3CC[C@@H]2[C@@H]3N)cc2nc(-c3cc4cccnc4n3CC3CC3)n(C[C@H]3CCN(c4cncc(C#N)n4)C3)c12 [Example 203, 6-[(3S)-3-({5-[(1R,4R,7R)-7-amino-2-azabicyclo[2.2.1]heptane-2-carbonyl]-2-[1-(cyclopropylmethyl)-1H-pyrrolo[2,3-b]pyridin-2-yl]-7-methoxy-1H-1,3-benzodiazol-1-yl}methyl)pyrrolidin-1-yl]pyrazine-2-carbonitrile]"
9,48 nM,"COc1cc(C(=O)N2CC3CCC2[C@@H]3N)cc2nc(-c3cc4ccccc4n3CC3CC3)n(CC3CC(F)(F)C3)c12 (stereo partly drawn) [Example 478, (7R)-2-{2-[1-(cyclopropylmethyl)-1H-indol-2-yl]-1-[(3,3-difluorocyclobutyl)methyl]-7-methoxy-1H-1,3-benzodiazole-5-carbonyl}-2-azabicyclo[2.2.1]heptan-7-amine]"
10,47 nM,"COc1cc(C(=O)N2CC3CCC2[C@@H]3N)cc2nc(-c3cc4cccnc4n3CC3CC3)n(Cc3cn[nH]n3)c12 (stereo partly drawn) [Example 485, (7R)-2-{2-[1-(cyclopropylmethyl)-1H-pyrrolo[2,3-b]pyridin-2-yl]-7-methoxy-1-[(2H-1,2,3-triazol-4-yl)methyl]-1H-1,3-benzodiazole-5-carbonyl}-2-azabicyclo[2.2.1]heptan-7-amine]"
11,78 nM,"COc1cc(C(=O)N2C[C@H]3CC[C@@H]2[C@@H]3N)cc2nc(-c3cc4cccnc4n3CC3CC3)n(CC3CN(c4ncc(C#N)cc4Br)C3)c12 [Example 29, 6-[3-({5-[(1R,4R,7R)-7-amino-2-azabicyclo[2.2.1]heptane-2-carbonyl]-2-[1-(cyclopropylmethyl)-1H-pyrrolo[2,3-b]pyridin-2-yl]-7-methoxy-1H-1,3-benzodiazol-1-yl}methyl)azetidin-1-yl]-5-bromopyridine-3-carbonitrile]"
12,199 nM,"COc1cc(C(=O)N2C[C@H]3CC[C@@H]2[C@@H]3N)cc2nc(-c3cc4cccnc4n3CC3CC3)n(CC3CN(c4cncc(C)n4)C3)c12 [Example 63, (1R,4R,7R)-2-{2-[1-(cyclopropylmethyl)-1H-pyrrolo[2,3-b]pyridin-2-yl]-7-methoxy-1-{[1-(6-methylpyrazin-2-yl)azetidin-3-yl]methyl}-1H-1,3-benzodiazole-5-carbonyl}-2-azabicyclo[2.2.1]heptan-7-amine]"
